# Experimental data as given in patent US11919901B2 (Syndax Pharmaceuticals, Inc., priority 2021, dated 2024).
# Tested on: MV4-11 cells
# Assay: Cell proliferation assay MV4;11 (CellTiter-Glo, 72 hours)
# Assay type: cell-based
# Details: Homo sapiens; MV4;11 leukemia cell line, 72 hours; read-out: MV4; 11 IC50
# How it was run: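 MV4-11 cells (MLL1-AF4 fusion) exposed 72 h at 37 °C to 8 compound concentrations, final 0.632–2000 nM. Viability by CellTiter-Glo luminescence as % of vehicle RLU; % max inhibition = 100 − viability at top concentration.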
row,SMILES,IC50
1,"CC(C)N(C(=O)c1cc(F)ccc1Oc1cncnc1N1CC2(CCN(C[C@@H]3CC[C@@H](NS(N)(=O)=O)CO3)CC2)C1)C1CC(F)(F)C1 [Example 117, N-(3,3-Difluorocyclobutyl)-5-fluoro-N-isopropyl-2-((4-(7-(((2S,5R)-5-(sulfamoylamino)tetrahydro-2H-pyran-2-yl)methyl)-2,7-diazaspiro[3.5]nonan-2-yl)pyrimidin-5-yl)oxy)benzamide]",< 100 nM
2,"CC(C)N(CCC#N)C(=O)c1cc(F)ccc1Oc1cncnc1N1CC2(CCN(C[C@@H]3CC[C@@H](NS(=O)(=O)N(C)C)CO3)CC2)C1 [Example 183, N-(2-Cyanoethyl)-2-((4-(7-(((2S,5R)-5-((N,N-dimethylsulfamoyl)amino)tetrahydro-2H-pyran-2-yl)methyl)-2,7-diazaspiro[3.5]nonan-2-yl)pyrimidin-5-yl)oxy)-5-fluoro-N-isopropylbenzamide]",< 100 nM
3,"CC(C)N(C(=O)c1cc(F)ccc1Oc1cncnc1N1CC2(CCN(C[C@@H]3CC[C@@H](NS(=O)(=O)C(C)C)CO3)CC2)C1)[C@H]1CCOC1 [Example 174, 5-Fluoro-N-isopropyl-2-((4-(7-(((2S,5R)-5-((1-methylethyl)sulfonamido)tetrahydro-2H-pyran-2-yl)methyl)-2,7-diazaspiro[3.5]nonan-2-yl)pyrimidin-5-yl)oxy)-N-((S)-tetrahydrofuran-3-yl)benzamide]",< 100 nM
4,"CCN(C)S(=O)(=O)N[C@@H]1CC[C@@H](CN2CCC3(CC2)CN(c2ncncc2Oc2ccc(F)cc2C(=O)N2[C@H](C)COC[C@H]2C)C3)OC1 [Example 128, {[(3R,6S)-6-{[2-(5-{2-[(3R,5R)-3,5-Dimethylmorpholine-4-carbonyl]-4-fluorophenoxy}pyrimidin-4-yl)-2,7-diazaspiro[3.5]nonan-7-yl]methyl}oxan-3-yl]sulfamoyl}(ethyl)methylamine]",< 100 nM
5,"CCS(=O)(=O)N[C@@H]1CC[C@@H](CN2CCC3(CC2)CN(c2ncncc2Oc2ccc(F)cc2C(=O)N(C(C)C)[C@H]2CCOC2)C3)OC1 [Example 33, 2-((4-(7-(((2S,5R)-5-(Ethylsulfonamido)tetrahydro-2H-pyran-2-yl)methyl)-2,7-diazaspiro[3.5]nonan-2-yl)pyrimidin-5-yl)oxy)-5-fluoro-N-isopropyl-N-((S)-tetrahydrofuran-3-yl)benzamide]",< 100 nM
6,"CCN(C(=O)c1cc(F)ccc1Oc1cncnc1N1CC2(CCN(C[C@@H]3CC[C@@H](NS(N)(=O)=O)CO3)CC2)C1)C(C)C [Example 73, N-Ethyl-5-fluoro-N-isopropyl-2-((4-(7-(((2S,5R)-5-(sulfamoylamino)tetrahydro-2H-pyran-2-yl)methyl)-2,7-diazaspiro[3.5]nonan-2-yl)pyrimidin-5-yl)oxy)benzamide]",100 to 1000 nM
7,"CCNS(=O)(=O)N[C@H]1CC[C@H](CN2CCC3(CC2)CN(c2ncnnc2Oc2ccc(F)cc2C(=O)N(CC(F)(F)F)C(C)C)C3)OC1 (stereo in doubt) [Example 193, 2-((5-(7-(((2R,5S)-5-((N-Ethylsulfamoyl)amino)tetrahydro-2H-pyran-2-yl)methyl)-2,7-diazaspiro[3.5]nonan-2-yl)-1,2,4-triazin-6-yl)oxy)-5-fluoro-N-isopropyl-N-(2,2,2-trifluoroethyl)benzamide]",< 100 nM
8,"CCNS(=O)(=O)N[C@@H]1CC[C@@H](CN2CCC3(CC2)CN(c2ncnnc2Oc2ccc(F)cc2C(=O)N(C(C)C)C(C)C)C3)OC1 [Example 198, 2-((5-(7-(((2S,5R)-5-((N-Ethylsulfamoyl)amino)tetrahydro-2H-pyran-2-yl)methyl)-2,7-diazaspiro[3.5]nonan-2-yl)-1,2,4-triazin-6-yl)oxy)-5-fluoro-N,N-diisopropylbenzamide]",< 100 nM
9,"C[C@@H]1COC[C@H](C)N1C(=O)c1cc(F)ccc1Oc1cncnc1N1CC2(CCN(C[C@@H]3CC[C@@H](NS(=O)(=O)N(C)C)CO3)CC2)C1 [Example 160, {[(3R,6S)-6-{[2-(5-{2-[(3R,5S)-3,5-Dimethylmorpholine-4-carbonyl]-4-fluorophenoxy}pyrimidin-4-yl)-2,7-diazaspiro[3.5]nonan-7-yl]methyl}oxan-3-yl]sulfamoyl}dimethylamine]",< 100 nM
10,"CC(C)N(C(=O)c1cc(F)ccc1Oc1cncnc1N1CC2(CCN(C[C@@H]3CC[C@@H](NS(=O)(=O)N4CC5(COC5)C4)CO3)CC2)C1)C(C)C [Example 222, 2-((4-(7-(((2S,5R)-5-(2-Oxa-6-azaspiro[3.3]heptane-6-sulfonamido)tetrahydro-2H-pyran-2-yl)methyl)-2,7-diazaspiro[3.5]nonan-2-yl)pyrimidin-5-yl)oxy)-5-fluoro-N,N-diisopropylbenzamide]",< 100 nM
11,"CCN(C(=O)c1cc(F)ccc1Oc1cncnc1N1CC2(CCN(C[C@@H]3CC[C@@H](NS(=O)(=O)NC4CC4)CO3)CC2)C1)C(C)C [Example 142, 2-((4-(7-(((2S,5R)-5-((N-Cyclopropylsulfamoyl)amino)tetrahydro-2H-pyran-2-yl)methyl)-2,7-diazaspiro[3.5]nonan-2-yl)pyrimidin-5-yl)oxy)-N-ethyl-5-fluoro-N-isopropylbenzamide]",< 100 nM
12,"CCN(C(=O)c1cc(F)ccc1Oc1cncnc1N1CC2(CCN(C[C@@H]3CC[C@@H](NS(=O)(=O)CC)CO3)CC2)C1)C(C)C [Example 2, N-Ethyl-2-((4-(7-(((2S,5R)-5-(ethylsulfonamido)tetrahydro-2H-pyran-2-yl)methyl)-2,7-diazaspiro[3.5]nonan-2-yl)pyrimidin-5-yl)oxy)-5-fluoro-N-isopropylbenzamide]",< 100 nM
13,"CC(C)N(C(=O)c1cc(F)ccc1Oc1cncnc1N1CC2(CCN(C[C@@H]3CC[C@@H](NS(=O)(=O)N4CCOCC4)CO3)CC2)C1)C1CC(F)(F)C1 [Example 116, N-(3,3-Difluorocyclobutyl)-5-fluoro-N-isopropyl-2-((4-(7-(((2S,5R)-5-(morpholine-4-sulfonamido)tetrahydro-2H-pyran-2-yl)methyl)-2,7-diazaspiro[3.5]nonan-2-yl)pyrimidin-5-yl)oxy)benzamide]",< 100 nM
14,"CCN(C(=O)c1cc(F)ccc1Oc1cncnc1N1CC2(CCN(C[C@@H]3CC[C@@H](NS(=O)(=O)N4CCOCC4)CO3)CC2)C1)C(C)C [Example 64, N-Ethyl-5-fluoro-N-isopropyl-2-((4-(7-(((2S,5R)-5-(morpholine-4-sulfonamido)tetrahydro-2H-pyran-2-yl)methyl)-2,7-diazaspiro[3.5]nonan-2-yl)pyrimidin-5-yl)oxy)benzamide]",< 100 nM
15,"CC(C)N(C(=O)c1cc(F)ccc1Oc1cncnc1N1CC2(CCN(C[C@@H]3CC[C@@H](NS(=O)(=O)C4COC4)CO3)CC2)C1)C(C)C [Example 16, 5-Fluoro-N,N-diisopropyl-2-((4-(7-(((2S,5R)-5-(oxetane-3-sulfonamido)tetrahydro-2H-pyran-2-yl)methyl)-2,7-diazaspiro[3.5]nonan-2-yl)pyrimidin-5-yl)oxy)benzamide]",< 100 nM
16,"CC(C)N(C(=O)c1cc(F)ccc1Oc1cncnc1N1CC2(CCN(C[C@@H]3CC[C@@H](NS(=O)(=O)N4CCC4)CO3)CC2)C1)C1CC(F)(F)C1 [Example 118, 2-((4-(7-(((2S,5R)-5-(Azetidine-1-sulfonamido)tetrahydro-2H-pyran-2-yl)methyl)-2,7-diazaspiro[3.5]nonan-2-yl)pyrimidin-5-yl)oxy)-N-(3,3-difluorocyclobutyl)-5-fluoro-N-isopropylbenzamide]",< 100 nM
